Laboratory results as given in patent US20180140694A1, “DOSAGE REGIMEN FOR HIV VACCINE” (priority 2015, published 2018).

What was measured:
[1] = test system: HIV-1 transcription in CD4+ T cells; experiment: Cell associated unspliced HIV-1 RNA in CD4+ T cells by droplet digital PCR (REDUC); type: in vivo; details: REDUC Part A
Method: Unspliced HIV-1 RNA (copies per 10^6 CD4+ T cells): HIV transcription was measured as copies of cell-associated unspliced HIV-1 RNA/106 CD4+ T cells using digital droplet PCR.
HIV transcription was measured as copies of cell-associated unspliced HIV-1 RNA/106 CD4+ T cells using digital droplet PCR. CD4+ T-cells were isolated from PBMCs using Miltenyi Biotec negative bead separation kit (CD4 T cell isolation, #130-096-533) as described with LD separation columns, lysed (Lysis buffer from Qiagen DNA/RNA extraction kit), and stored ad −80° C. until extraction of RNA and DNA (Allprep isolation kit, Qiagen). Reverse transcription, amplification and quantitation of cell-associated unspliced HIV RNA from HIV patients was performed as follows. In summary, HIV unspliced RNA was detected on the BioRad QX100 droplet digital platform using a defined primer/probe set and related to total cell input by quantitation of the IPO8 (Importin 8) and TBP (Tata Binding Protein) gene transcription. […] After cycling droplets were subsequently read automatically by the QX100 droplet reader (BioRad) and the data was analyzed with the QuantaSoft™ analysis software (BioRad). On average, the six HIV replicates generated 80,000-98,000 droplets to be analyzed per time point.

Plasma HIV-1 RNA [2] = experiment: Plasma HIV-1 RNA by transcription mediated amplification (NAT screen, PROCLEIX ULTRIO Plus); type: in vivo; details: REDUC Part A
Method: Plasma HIV-1 RNA detection by NAT screen: Measured by a transcription mediated amplification (TMA)-based methodology, usually referred to as a nucleic acid test (NAT)-screen (PROCLEIX ULTRIO Plus, Genprobe).
Plasma HIV RNA, quantitative viral load, was measured by Cobas® TaqMan® HIV-1 Test, v2.0 (Roche) according the manufacturer's instruction (routine clinical assay). The lower limit of quantification for this assay is 20 copies HIV-1 RNA/mL, but it provides a qualitative assessment below this. Plasma HIV-1 RNA was also measured by a transcription mediated amplification (TMA)-based methodology, usually referred to as a nucleic acid test (NAT)-screen (PROCLEIX ULTRIO Plus, Genprobe), according to manufacturer's instructions.

[3] = test system: Histone H3 acetylation in lymphocytes; experiment: Histone H3 acetylation in lymphocytes by flow cytometry (REDUC); type: in vivo, human; details: REDUC Part A, following each romidepsin administration, 5 mg/m^2
Method: Histone H3 acetylation: Measured in lymphocytes using flow cytometry with intracellular cytokine stain on fresh isolated PBMCs.
Histone H3 acetylation was measured in lymphocytes using flow cytometry with intracellular cytokine staining on fresh isolated PBMCs. Freshly isolated PBMC's were fixated, permeabilised and stained with acetylation-specific antibodies, providing the possibility to evaluate epigenetic modifications on Histones (Rigby L, Muscat A, Ashley D, Algar E. Epigenetics 2012; 7(8):875-882). Briefly, PBMCs (1×10^6) were resuspended in 3 ml ice-cold PBS/1% FBS and centrifuged, then vortexed to dissolve pellet and fixative added, 100 μl 2% PFA (ice-cold), vortexed briefly and incubated on ice for 15 min. Cells were then washed in 4 ml PBS, resuspended in 200 μl PBS and stored at 4° C. until staining. Samples were washed with 3 ml FACS buffer and vortexed to dissolve cell pellet prior to adding 100 μl 0.2% Triton X-100, vortexed briefly and incubated for 10 min. at room temperature (RT). Samples were then washed with FACS buffer, 600 μl Block (PBS/10% FBS) was added, sample vortexed to resuspend cell pellet and incubated for 20 min at RT. […] Finally, samples were washed with FACS buffer and resuspended in 80 μl PBS and analyzed by FACS (50 000 events, anti-acetyl histone H3 Median Fluorescence Intensity, MFI, calculated by subtracting background MFI from isotype control).

Plasma HIV-1 RNA [4] = details: REDUC Part A
Method: Plasma HIV RNA, quantitative viral load: Measured by Roche VL (routine clinical assay).
Plasma HIV RNA, quantitative viral load, was measured by Cobas® TaqMan® HIV-1 Test, v2.0 (Roche) according the manufacturer's instruction (routine clinical assay). The lower limit of quantification for this assay is 20 copies HIV-1 RNA/mL, but it provides a qualitative assessment below this.

[5] = Safety and tolerability evaluation in REDUC trial (adverse events); type: in vivo, human
Text: The primary endpoint of Part A was safety and tolerability; evaluation as measured by adverse events (AE), adverse reactions (AR), serious adverse events (SAE), serious adverse reactions (SAR), serious unexpected adverse reactions (SUSAR).
The primary endpoint of Part B was firstly, safety and tolerability evaluation as measured by adverse events (AE), adverse reactions (AR), serious adverse events (SAE), serious adverse reactions (SAR), serious unexpected adverse reactions (SUSAR) and dose-limiting toxicity.

[6] = test system: latent HIV-1 reservoir in CD4+ T cells; experiment: Total HIV-1 DNA per 10^6 CD4+ T cells by droplet digital PCR (REDUC); type: in vivo; details: REDUC Part A, romidepsin infusions without preceding vaccination
Text: Total HIV-1 DNA (copies per 10^6 CD4+ T cells): Total HIV DNA quantifies integrated and non-integrated DNA as well as latent and defective virus. There is a strong correlation between total HIV DNA and integrated HIV DNA in patients on cART and therefore cell-associated HIV DNA is likely to be a good surrogate marker of the total number of latently infected cells [Koelsch 2008].
For HIV-1 DNA quantifications, CD4 T cells were isolated using a CD4+ T Cell Isolation Kit Miltenyi biotec, cat no 130-096-533) on LS columns (Miltenyi biotec, cat no 130-042-401). After CD4 T isolation, cells were resuspended in lysis buffer and digested as previously described [Chomont, 2009 Nat Med, 15(8): 893-900]. Cell lysates were used directly for HIV-1 DNA quantifications using the QX100™ Droplet Digital™ PCR system (Bio-Rad) to determine the absolute levels of total HIV-1 DNA per 106 CD4+ T cells [Strain et al 2013 PLOS One].

[7] = REDUC Part A, romidepsin 5 mg/m^2, 6 patients

C/C=C1\NC(=O)[C@H]2CSSCC/C=C/[C@H](CC(=O)N[C@H](C(C)C)C(=O)N2)OC(=O)[C@H](C(C)C)NC1=O [romidepsin, (1S,4S,7Z,10S,16E,21R)-7-ethylidene-4,21-bis(1-methylethyl)-2-oxa-12,13-dithia-5,8,20,23-tetraazabicyclo[8.7.6] tricos-16-ene-3,6,9,19,22-pentone]
cell-associated un-spliced HIV RNA as a result of romidepsin infusion [1]: significantly increased | cell-associated un-spliced HIV-1 RNA, fold range from baseline ([1]; after third infusion): 2.4-5.0 fold | Plasma HIV-1 RNA detection by transcription-mediated amplification assay, post-infusion versus baseline (Plasma HIV-1 RNA [2]): detected more frequently | Lymphocyte histone H3 acetylation, maximum fold range relative to baseline [3]: 3.7-7.7 fold | extracellular HIV RNA as a result of romidepsin infusion (Plasma HIV-1 RNA [4]): significantly increased | patients with plasma HIV-1 RNA increased to readily quantifiable levels (Plasma HIV-1 RNA [4]; multiple post-infusion time-points): 5 of 6 patients | plasma HIV-1 RNA (Plasma HIV-1 RNA [4]; range following the second infusion, <20 copies/mL at baseline): 46-103 copies/mL | adverse event grade [5, 7]: most adverse events (AEs) were of grade 1 | serious adverse events [5, 7]: No serious adverse events were observed | adverse events considered related to the agent ([5]; REDUC Part B, of 141 in total): 57 adverse events | size of the latent reservoir [6]: not affected
